Assay results: ChEMBL document CHEMBL3217491, “Design, synthesis and biological evaluation of imidazopyridine/pyrimidine-chalcone derivatives as potential anticancer agents” (2010)
The source made the active and inactive calls. No cut-off for these calls is given here.

Tests used:
T47D = assay: Growth inhibition of human T47D cells after 48 hrs by SRB assay; assay type: functional
MCF7 [1] = assay: Cell cycle arrest in human MCF7 cells assessed as accumulation at G2/M phase at 4 uM after 24 hrs by propidium iodide staining-based flow cytometry (reference value: 15.79%); assay type: functional
NCI-H23 = assay: Growth inhibition of human NCI-H23 cells after 48 hrs by SRB assay; assay type: functional; conditions: NCI-H23, 48 h
TK-10 = assay: Growth inhibition of human TK10 cells after 48 hrs by SRB assay; assay type: functional; conditions: TK-10, 48 h
[2] = Growth inhibition of human OVCAR5 cells after 48 hrs by SRB assay; assay type: functional; conditions: OVCAR-5, 48 h
SF-268 = assay: Growth inhibition of human SF268 cells after 48 hrs by SRB assay; assay type: functional; conditions: SF-268, 48 h
PC-3 = assay: Growth inhibition of human PC3 cells after 48 hrs by SRB assay; assay type: functional; conditions: PC-3, 48 h
CAKI-1 = assay: Growth inhibition of human Caki1 cells after 48 hrs by SRB assay; assay type: functional; conditions: CAKI-1, 48 h
[3] = Growth inhibition of human HCT15 cells after 48 hrs by SRB assay; assay type: functional; conditions: HCT-15, 48 h
[4] = Growth inhibition of human SF539 cells after 48 hrs by SRB assay; assay type: functional; conditions: SF-539, 48 h
NCI-H460 = assay: Growth inhibition of human NCI-H460 cells after 48 hrs by SRB assay; assay type: functional; conditions: NCI-H460, 48 h
SN12C = assay: Growth inhibition of human SN12C cells after 48 hrs by SRB assay; assay type: functional
SNB-19 = assay: Growth inhibition of human SNB19 cells after 48 hrs by SRB assay; assay type: functional; conditions: SNB-19, 48 h
IGROV-1 = assay: Growth inhibition of human IGROV1 cells after 48 hrs by SRB assay; assay type: functional; conditions: IGROV-1, 48 h
HOP-62 = assay: Growth inhibition of human HOP62 cells after 48 hrs by SRB assay; assay type: functional; conditions: HOP-62, 48 h
MDA-MB-468 = assay: Growth inhibition of human MDA-MB-468 cells after 48 hrs by SRB assay; assay type: functional; conditions: MDA-MB-468, 48 h
[5] = Growth inhibition of human OVCAR4 cells after 48 hrs by SRB assay; assay type: functional; conditions: OVCAR-4, 48 h
A549 = assay: Growth inhibition of human A549 cells after 48 hrs by SRB assay; assay type: functional; conditions: A549, 48 h
SNB-75 = assay: Growth inhibition of human SNB75 cells after 48 hrs by SRB assay; assay type: functional; conditions: SNB-75, 48 h
HL-60(TB) = assay: Growth inhibition of human HL-60(TB) cells after 48 hrs by SRB assay; assay type: functional; conditions: HL-60, 48 h
RPMI-8226 = assay: Growth inhibition of human RPMI8226 cells after 48 hrs by SRB assay; assay type: functional; conditions: RPMI-8226, 48 h
COLO 205 = assay: Growth inhibition of human COLO205 cells after 48 hrs by SRB assay; assay type: functional; conditions: COLO 205, 48 h
HCT-116 = assay: Growth inhibition of human HCT116 cells after 48 hrs by SRB assay; assay type: functional; conditions: HCT-116, 48 h
A498 = assay: Growth inhibition of human A498 cells after 48 hrs by SRB assay; assay type: functional; conditions: A498, 48 h
DU-145 = assay: Growth inhibition of human DU145 cells after 48 hrs by SRB assay; assay type: functional; conditions: DU-145, 48 h
[6] = Growth inhibition of human HCC2998 cells after 48 hrs by SRB assay; assay type: functional; conditions: HCC 2998, 48 h
K562 = assay: Growth inhibition of human K562 cells after 48 hrs by SRB assay; assay type: functional; conditions: K562, 48 h
MCF7 [7] = assay: Growth inhibition of human MCF7 cells after 48 hrs by SRB assay; assay type: functional; conditions: MCF7, 48 h
MDA-MB-435 = assay: Growth inhibition of human MDA-MB-435 cells after 48 hrs by SRB assay; assay type: functional; conditions: MDA-MB-435, 48 h
MCF7 [8] = assay: Cell cycle arrest in human MCF7 cells assessed as accumulation at S phase at 4 uM after 24 hrs by propidium iodide staining-based flow cytometry (reference value: 20.17%); assay type: functional
MCF7 [9] = assay: Growth inhibition of human MCF7 cells assessed as cell viability at 4 uM after 24 hrs by MTT assay; assay type: functional, cell-based
Malme-3M = assay: Growth inhibition of human MALME-3M cells after 48 hrs by SRB assay; assay type: functional
NCI-H322M = assay: Growth inhibition of human NCI-H322M cells after 48 hrs by SRB assay; assay type: functional
SK-MEL-5 = assay: Growth inhibition of human SK-MEL-5 cells after 48 hrs by SRB assay; assay type: functional; conditions: SK-MEL-5, 48 h
[10] = Growth inhibition of human SF295 cells after 48 hrs by SRB assay; assay type: functional; conditions: SF-295, 48 h
[11] = Growth inhibition of human BT549 cells after 48 hrs by SRB assay; assay type: functional; conditions: BT-549, 48 h
MDA-MB-231 = assay: Growth inhibition of human MDA-MB-231 cells after 48 hrs by SRB assay; assay type: functional; conditions: MDA-MB-231, 48 h
[12] = Growth inhibition of human UACC257 cells after 48 hrs by SRB assay; assay type: functional; conditions: UACC-257, 48 h
[13] = Growth inhibition of human LOXIMVI cells after 48 hrs by SRB assay; assay type: functional; conditions: LOX IMVI
KM12 = assay: Growth inhibition of human KM12 cells after 48 hrs by SRB assay; assay type: functional; conditions: KM12, 48 h
[14] = Growth inhibition of human OVCAR8 cells after 48 hrs by SRB assay; assay type: functional; conditions: OVCAR-8, 48 h
[15] = Growth inhibition of human MOLT4 cells after 48 hrs by SRB assay; assay type: functional; conditions: MOLT-4, 48 h
SK-OV-3 = assay: Growth inhibition of human SKOV3 cells after 48 hrs by SRB assay; assay type: functional; conditions: SK-OV-3, 48 h
NCI-H226 = assay: Growth inhibition of human NCI-H226 cells after 48 hrs by SRB assay; assay type: functional; conditions: NCI-H226, 48 h
[16] = Growth inhibition of human UACC62 cells after 48 hrs by SRB assay; assay type: functional; conditions: UACC-62, 48 h
NCI-H522 = assay: Growth inhibition of human NCI-H522 cells after 48 hrs by SRB assay; assay type: functional; conditions: NCI-H522, 48 h
[17] = Growth inhibition of human OVCAR3 cells after 48 hrs by SRB assay; assay type: functional; conditions: OVCAR-3, 48 h
[18] = Growth inhibition of human NCI-ADR-RES cells after 48 hrs by SRB assay; assay type: functional
M14 = assay: Growth inhibition of human M14 cells after 48 hrs by SRB assay; assay type: functional; conditions: M14, 48 h
786-0 = assay: Growth inhibition of human 786-0 cells after 48 hrs by SRB assay; assay type: functional; conditions: 786-0, 48 h
[19] = Growth inhibition of human HOP92 cells after 48 hrs by SRB assay; assay type: functional; conditions: HOP-92, 48 h
ACHN = assay: Growth inhibition of human ACHN cells after 48 hrs by SRB assay; assay type: functional
[20] = Growth inhibition of human UO31 cells after 48 hrs by SRB assay; assay type: functional; conditions: UO-31, 48 h
SK-MEL-2 = assay: Growth inhibition of human SK-MEL-2 cells after 48 hrs by SRB assay; assay type: functional; conditions: SK-MEL-2, 48 h
CCRF-CEM = assay: Growth inhibition of human CCRF-CEM cells after 48 hrs by SRB assay; assay type: functional
HT-29 = assay: Growth inhibition of human HT-29 cells after 48 hrs by SRB assay; assay type: functional; conditions: HT-29, 48 h
U-251 = assay: Growth inhibition of human U251 cells after 48 hrs by SRB assay; assay type: functional; conditions: U-251, 48 h
[21] = Growth inhibition of human EKVX cells after 48 hrs by SRB assay; assay type: functional
SR = assay: Growth inhibition of human SR cells after 48 hrs by SRB assay; assay type: functional
MCF7 [22] = assay: Cell cycle arrest in human MCF7 cells assessed as accumulation at G0/G1 phase at 4 uM after 24 hrs by propidium iodide staining-based flow cytometry (reference value: 64.04%); assay type: functional

COc1cc(C(=O)/C=C/c2c(-c3cccs3)nc3ccccn23)cc(OC)c1OC
GI50 (T47D): 1.72 µM | Activity (MCF7 [1]): 1.11% | GI50 (NCI-H23): 2.2 µM | GI50 (TK-10): 3.78 µM | GI50 [2]: 2.64 µM | GI50 (SF-268): 2.37 µM | GI50 (PC-3): 2.63 µM | GI50 (CAKI-1): 2.31 µM | GI50 [3]: 1.6 µM | GI50 [4]: 1.87 µM | GI50 (NCI-H460): 1.42 µM | GI50 (SN12C): 2.44 µM | GI50 (SNB-19): 2.1 µM | GI50 (IGROV-1): 1.89 µM | GI50 (HOP-62): 2.88 µM | GI50 (MDA-MB-468): 1.72 µM | GI50 [5]: 3.13 µM | GI50 (A549): 2.04 µM | GI50 (SNB-75): 2.68 µM | GI50 (HL-60(TB)): 2.01 µM | GI50 (RPMI-8226): 1.34 µM | GI50 (COLO 205): 1.77 µM | GI50 (HCT-116): 1.63 µM | GI50 (A498): 0.98 µM | GI50 (DU-145): 1.9 µM | GI50 [6]: 1.96 µM | GI50 (K562): 1.51 µM | GI50 (MCF7 [7]): 1.12 µM | GI50 (MDA-MB-435): 2.49 µM | Activity (MCF7 [8]): 6.48% | inhibition (MCF7 [9]): Active | GI50 (Malme-3M): 3.65 µM | GI50 (NCI-H322M): 3.02 µM | GI50 (SK-MEL-5): 1.33 µM | GI50 [10]: 2.24 µM | GI50 [11]: 1.86 µM | GI50 (MDA-MB-231): 3.08 µM | GI50 [12]: 1.88 µM | GI50 [13]: 1.87 µM | GI50 (KM12): 1.32 µM | GI50 [14]: 1.68 µM | GI50 [15]: 1.77 µM | GI50 (SK-OV-3): 3.01 µM | GI50 (NCI-H226): 2.04 µM | GI50 [16]: 1.61 µM | GI50 (NCI-H522): 1.1 µM | GI50 [17]: 2.44 µM | GI50 [18]: 1.89 µM | GI50 (M14): 2.08 µM | GI50 (786-0): 2.31 µM | GI50 [19]: 0.28 µM | GI50 (ACHN): 2.09 µM | GI50 [20]: 1.07 µM | GI50 (SK-MEL-2): 2.27 µM | GI50 (CCRF-CEM): 1.66 µM | GI50 (HT-29): 2.09 µM | GI50 (U-251): 1.66 µM | GI50 [21]: 3.12 µM | GI50 (SR): 1.23 µM | Activity (MCF7 [22]): 92.41%
